This note sets out measurements from BindingDB's records for doi:10.1002/cbic.201200521 (University of Cambridge, 2013).

Broadly, the Kd is a measure of binding affinity in units of concentration.

The assay addresses DNA repair and recombination protein RadA (Pyrococcus furiosus (strain ATCC 43587 / DSM 3638 / JCM 8422 / Vc1), UniProt O74036). In words: Thermal Denaturation Assay. As for the experimental part: The thermal-shift denaturation assay was performed on an iCycler iQ Real Time Detection System (BioRad) in 96-well iCycler iQ PCR plates sealed with optically clear lids.
Consider `c1ccc2[nH]ncc2c1` [Indazole, 5], for which the Kd is 1000 µM.

On to `Cc1ccc2[nH]ccc2c1` [Indole, 2], for which the Kd turned out to be 2100 µM.

As for `Oc1ccc2[nH]ccc2c1`, the Kd came out at 2100 µM.

On to `COC(=O)[C@@H](N)Cc1c[nH]c2ccccc12` [L-Methyl ester tryptophan, 8], for which the Kd is 570 µM.
